Each structure is given as a SMILES string.

Experiment [1] relates to XPR1-dependent cell lines (RMGI). Kind of experiment: phosphate efflux in ovarian cancer cell line (FIG. 6A). Type of experiment: cell-based. As to conditions: as compared to RBD (protein inhibitor of XPR1). The text has this: (§1) FIG. 6A-FIG. 6B—IP6K inhibitors. FIG. 6A. Graph showing phosphate efflux in an ovarian cancer cell line treated with TNP or RBD_00. FIG. 6B. Graph showing cell viability in an ovarian cancer cell line treated with TNP or RBD_00 and the indicated CRISPR guide sequences.

Experiment [2] has as its system ovarian cancer cell line. The experiment can be described thus: cell viability in ovarian cancer cell line with CRISPR guide sequences (FIG. 6B). Type of experiment: cell-based. Conditions: high doses; specificity to XPR1-dependent cell lines.
Source text: as §1

`O=[N+]([O-])c1ccc(CNc2nc(NCc3cccc(C(F)(F)F)c3)nc3nc[nH]c23)cc1` [TNP, N2-(m-(trifluoromethyl)benzyl) N6-(p-nitrobenzyl)purine]: the phosphate efflux entry in experiment [1] is given as “did not observe a decrease in phosphate efflux”. The proliferation effects entry in experiment [2] is “Proliferation effects were observed at high doses of TNP, but the effects were not specific to XPR1-dependent cell lines”.

Values taken from patent publication US20250127768A1, “THERAPEUTIC TARGETING OF INOSITOL PYROPHOSPHATE SYNTHESIS IN CANCER” (The Broad Institute, Inc., priority 2022, published 2025).
